Results reported in patent publication US20050208549A1, “Testing endosymbiont cellular organelles and compounds identifiable therewith” (priority 2000, published 2005).

Tests used:
[1] = cited from earlier work
[2] = tested on: Fibroblasts; test: One-tube duplex NASBA ratio of mitochondrial RNA and chromosomal DNA in fibroblasts cultured with ddC; type: cell-based
Protocol: In this example, the NASBA nucleic acid amplification reactions for DNA target sequences were performed in a 20 μl reaction volume and contained: 40 mM Tris-pH 8.5, 70 mM KCl, 12 mM MgCl2, 5 mM dithiotreitol, 1 mM dNTPs (each), 2 mM rNTPs (each), 0.2 μM primer (each), 0.05 μM molecular beacon, 1.5 units restriction enzyme Msp I, 375 mM sorbitol, 0.105 μg/μl bovine serum albumin, 6.4 units AMV RT, 32 units T7 RNA polymerase, 0.08 units RNAse H and input nucleic acid. The complete mixture, except the enzymes sorbitol and bovine serum albumin, was, prior to adding the enzyme mixture, incubated at 37° C. for 25 minutes and subsequently heated to 95° C. for two minutes in order to denature the DNA and to allow the primers to anneal. After cooling the mixture to 41° C., the enzyme mixture was added. The amplification took place at 41° C. for 90 minutes in a fluorimeter (CytoFluor 2000) and the fluorescent signal was measured every minute (using the filter set 530/25 nm and 485/30 nm). To achieve quantification, a dilution series of target sequence for a particular primer set was amplified and the time points at which the reactions became positive (the time to positivity, TTP) were plotted against the input amounts of nucleic acid. This way a calibration curve was created that could be used to read TTP values of reactions with unknown amounts of input and deduce the input amount. […] After five days, the cells were harvested and analyzed for an amount of chromosomal DNA (primers SnrpD p1 and SnrpD2 p2 and probe SnrpD mb) with the described NASBA protocol in the chapter “Used ingredients and general methodology” and compared with the NASBA protocol as described in this example. […]
Different ratios of mitochondrial RNA target and chromosomal DNA target in a plasmid were analyzed in this example: 2×10^3 U1a DNA/5×10^4 Mt RNA, 2×10^3 U1a DNA/2.5×10^5 Mt RNA, 2×10^3 U1a DNA/5×10^5 Mt RNA, 2×10^3 U1a DNA/2.5×10^6 Mt RNA, 2×10^3 U1a DNA/5×10^6 Mt RNA, 2×10^3 U1a DNA/10^7 Mt RNA, 2×10^3 U1a DNA/2.5×10^7 Mt RNA molecules were included. […]

Row | SMILES | Rate (%) of mitochondrial toxicity, affected organ Heart ([1]; Dilated cardio-myopathy) | Rate (%) of mitochondrial toxicity, affected organ Muscle ([1]; Fatigue, myalgia, proximal weakness, wasting, Creatine kinase ↑) | amount of mitochondrial RNA in continued culture in the absence of ddC ([2]; ddC 30 μM eight weeks, then without ddC (week 10, 12, 14 and 16)) | amount of mitochondrial RNA in continued culture in the presence of ddC ([2]; ddC 30 μM, after week eight, another eight weeks) | mitochondrial RNA of fibroblasts in the presence of ddC ([2]; ddC 30 μM, eight weeks, FIG. 23)
1 | Cc1cn([C@H]2C[C@H](N=[N+]=[N-])[C@@H](CO)O2)c(=O)[nH]c1=O [AZT] | Rare | 17% | – | – | –
2 | Nc1ccn([C@H]2CC[C@@H](CO)O2)c(=O)n1 [ddC] | – | – | clear rebound | remains very low | lose their mitochondrial RNA
